SMILES strings stand for the structures.

For the assay, the target named is T1, Recombinant human BRD4 containing dual bromodomains (BRD4-BD12 (1-477)) (Homo sapiens, UniProt O60885).
T1 construct: Recombinant human BRD4 containing dual bromodomains (BRD4-BD12 (1-477)); made in house; host or cells: E. coli BL21-CodonPlus (DE3), modified pET vector
In words: BRD4 Alphascreen binding assay. The method in brief: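 AlphaScreen proximity between Ni-chelate-bound BRD4-BD12 (1-477) and streptavidin-captured H4 K5/K8/K12/K16-acetyl peptide measured after 1 h room-temperature compound incubation and 30 min with 7.5 μg/ml beads. Buffer: 50 mM HEPES pH 7.5, 50 mM NaCl, 0.01% BSA, 0.01% Triton X-100; data plate-normalized and four-parameter fit for IC50.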
(In general: In Alpha technology, singlet oxygen from a donor bead excites a nearby acceptor bead.)
In general, IC50 refers to the midpoint of a concentration-inhibition curve. `Cc1noc(C)c1-c1cnc2c(c1)c(-c1cccc(C(=O)O)c1)cn2Cc1ccccn1` [P-0049, 3-(5-(3,5-dimethylisoxazol-4-yl)-1-(pyridin-2-ylmethyl)-1H-pyrrolo[2,3-b]pyridin-3-yl)benzoic acid]: the IC50 was 8 to 1000 µM.

For the compound `Cc1noc(C)c1-c1cnc2c(c1)c(-c1cccc(C(=O)O)c1)cn2CC1CC1` [P-0050, 3-(1-(cyclopropylmethyl)-5-(3,5-dimethylisoxazol-4-yl)-1H-pyrrolo[2,3-b]pyridin-3-yl)benzoic acid], the IC50 fell in the range of 8 to 1000 µM.

As to `Cc1noc(C)c1-c1cnc2c(c1)c(C#CC(C)(C)C(=O)O)cn2Cc1ccccc1` [P-0051, 4-(1-benzyl-5-(3,5-dimethylisoxazol-4-yl)-1H-pyrrolo[2,3-b]pyridin-3-yl)-2,2-dimethylbut-3-ynoic acid], the IC50 fell in the range of 8 to 1000 µM.

For the compound `COC(=O)c1cc(-n2cc(Cc3ccccc3)c3ncc(-c4c(C)noc4C)cc32)ccn1` [P-0052, methyl 4-(3-benzyl-6-(3,5-dimethylisoxazol-4-yl)-1H-pyrrolo[3,2-b]pyridin-1-yl)picolinate], the IC50 was in the range of 1 to 8 µM.

Take `Cc1noc(C)c1-c1cnc2c(Cc3ccccc3)cn(-c3ccnc(C(=O)O)c3)c2c1` [P-0053, 4-(3-benzyl-6-(3,5-dimethylisoxazol-4-yl)-1H-pyrrolo[3,2-b]pyridin-1-yl)picolinic acid]: the IC50 fell in the range of 1 to 8 µM.

Take `Cc1noc(C)c1-c1cnc2c(C(=O)c3ccccc3)cn(-c3ccnc(C(=O)O)c3)c2c1` [P-0054, 4-(3-benzoyl-6-(3,5-dimethylisoxazol-4-yl)-1H-pyrrolo[3,2-b]pyridin-1-yl)picolinic acid]: the IC50 lay within 0.0001 to 1 µM.

`Cc1noc(C)c1-c1cnc2c(c1)c(-c1ccc(C(=O)O)cc1OC(F)(F)F)cn2-c1ccc(C2CC2)nc1` [P-0388, 4-(1-(6-cyclopropylpyridin-3-yl)-5-(3,5-dimethylisoxazol-4-yl)-1H-pyrrolo[2,3-b]pyridin-3-yl)-3-(trifluoromethoxy)benzoic acid]: the IC50 was in the range of 1 to 8 µM.

As for `Cc1noc(C)c1-c1cnc2c(c1)c(-c1ccc(C(=O)O)cc1OC(F)(F)F)cn2C1CCC(C#N)C1` (centres unmarked) [P-0389, 4-(1-(3-cyanocyclopentyl)-5-(3,5-dimethylisoxazol-4-yl)-1H-pyrrolo[2,3-b]pyridin-3-yl)-3-(trifluoromethoxy)benzoic acid], the IC50 was 1 to 8 µM.

For `Cc1noc(C)c1-c1cnc2c(c1)c(-c1c(Cl)cc(C(=O)O)cc1OCC(F)F)cn2-c1cnc(C2CC2)nc1` [P-0390, 3-chloro-4-(1-(2-cyclopropylpyrimidin-5-yl)-5-(3,5-dimethylisoxazol-4-yl)-1H-pyrrolo[2,3-b]pyridin-3-yl)-5-(2,2-difluoroethoxy)benzoic acid], the IC50 lay in the range of 1 to 8 µM.

Regarding `Cc1noc(C)c1-c1cnc2c(c1)c(-c1c(Cl)cc(C(=O)O)cc1OC1CCC1)cn2-c1cnc(C2CC2)nc1` [P-0391, 3-chloro-5-cyclobutoxy-4-(1-(2-cyclopropylpyrimidin-5-yl)-5-(3,5-dimethylisoxazol-4-yl)-1H-pyrrolo[2,3-b]pyridin-3-yl)benzoic acid], the half-maximal inhibitory concentration (IC50) was 1 to 8 µM.

Turning to `COc1ncc(-n2cc(-c3ccc(C(=O)O)cc3OC(F)(F)F)c3cc(-c4c(C)noc4C)cnc32)cn1` [P-0392, 4-(5-(3,5-dimethylisoxazol-4-yl)-1-(2-methoxypyrimidin-5-yl)-1H-pyrrolo[2,3-b]pyridin-3-yl)-3-(trifluoromethoxy)benzoic acid], the IC50 was 1 to 8 µM.

Regarding `Cc1noc(C)c1-c1cnc2c(c1)c(-c1c(Cl)cc(C(=O)O)cc1OC(C)C)cn2-c1cnc(C2CC2)nc1` [P-0393, 3-chloro-4-(1-(2-cyclopropylpyrimidin-5-yl)-5-(3,5-dimethylisoxazol-4-yl)-1H-pyrrolo[2,3-b]pyridin-3-yl)-5-isopropoxybenzoic acid], the concentration for half-maximal inhibition (IC50) was 1 to 8 µM.

For the compound `Cc1noc(C)c1-c1cnc2c(c1)c(-c1c(F)cc(C(=O)O)cc1OC1CC1)cn2C(C1CC1)C1CC1` [P-0394, 3-cyclopropoxy-4-(1-(dicyclopropylmethyl)-5-(3,5-dimethylisoxazol-4-yl)-1H-pyrrolo[2,3-b]pyridin-3-yl)-5-fluorobenzoic acid], the IC50 lay within 1 to 8 µM.

Turning to `Cc1noc(C)c1-c1cnc2c(c1)c(-c1c(Cl)cc(C(=O)O)cc1OC(F)(F)F)cn2-c1ncccc1C#N` [P-0395, 3-chloro-4-(1-(3-cyanopyridin-2-yl)-5-(3,5-dimethylisoxazol-4-yl)-1H-pyrrolo[2,3-b]pyridin-3-yl)-5-(trifluoromethoxy)benzoic acid], the IC50 was 1 to 8 µM.

Turning to `Cc1noc(C)c1-c1cnc2c(c1)c(-c1c(Cl)cc(C(=O)O)cc1OC1CCC1)cn2-c1ncccc1C#N` [P-0396, 3-chloro-4-(1-(3-cyanopyridin-2-yl)-5-(3,5-dimethylisoxazol-4-yl)-1H-pyrrolo[2,3-b]pyridin-3-yl)-5-cyclobutoxybenzoic acid], the IC50 lay within 1 to 8 µM.

Consider `Cc1noc(C)c1-c1cnc2c(c1)c(-c1c(F)cc(C(=O)O)cc1OC1CC1)cn2C1CCOCC1` [P-0397, 3-cyclopropoxy-4-(5-(3,5-dimethylisoxazol-4-yl)-1-(tetrahydro-2H-pyran-4-yl)-1H-pyrrolo[2,3-b]pyridin-3-yl)-5-fluorobenzoic acid], for which the IC50 is 8 to 1000 µM.

For the compound `CCOc1nc(C(=O)O)c(Cl)cc1-c1cn(C2CCOCC2)c2ncc(-c3c(C)noc3C)cc12` [P-0398, 3-chloro-5-(5-(3,5-dimethylisoxazol-4-yl)-1-(tetrahydro-2H-pyran-4-yl)-1H-pyrrolo[2,3-b]pyridin-3-yl)-6-ethoxypicolinic acid], the IC50 lay within 8 to 1000 µM.

As to `Cc1noc(C)c1-c1cnc2c(c1)c(-c1ccc(C(=O)O)cc1OC(F)(F)F)cn2-c1ccc(=O)n(C)c1` [P-0399, 4-(5-(3,5-dimethylisoxazol-4-yl)-1-(1-methyl-6-oxo-1,6-dihydropyridin-3-yl)-1H-pyrrolo[2,3-b]pyridin-3-yl)-3-(trifluoromethoxy)benzoic acid], the IC50 is 1 to 8 µM.

For the compound `CCc1noc(C)c1-c1cnc2c(c1)c(-c1ccc(C(=O)O)cc1OC(F)(F)F)cn2C1CCOCC1` [P-0400, 4-(5-(3-ethyl-5-methylisoxazol-4-yl)-1-(tetrahydro-2H-pyran-4-yl)-1H-pyrrolo[2,3-b]pyridin-3-yl)-3-(trifluoromethoxy)benzoic acid], the IC50 lay within 1 to 8 µM.

As to `CCc1onc(C)c1-c1cnc2c(c1)c(-c1ccc(C(=O)O)cc1OC(F)(F)F)cn2C1CCOCC1` [P-0401, 4-(5-(5-ethyl-3-methylisoxazol-4-yl)-1-(tetrahydro-2H-pyran-4-yl)-1H-pyrrolo[2,3-b]pyridin-3-yl)-3-(trifluoromethoxy)benzoic acid], the IC50 was in the range of 1 to 8 µM.

`Cc1cc(C(=O)O)cc(OC(C)C)c1-c1cn(C2CCOCC2)c2ncc(-c3c(C)noc3C)cc12` [P-0402, 4-(5-(3,5-dimethylisoxazol-4-yl)-1-(tetrahydro-2H-pyran-4-yl)-1H-pyrrolo[2,3-b]pyridin-3-yl)-3-isopropoxy-5-methylbenzoic acid]: the IC50 was 1 to 8 µM.

Take `Cc1noc(C)c1-c1cnc2c(c1)c(-c1ccc(C(=O)O)cc1OC(C)C)cn2C1(C)CCOCC1` [P-0403, 4-(5-(3,5-dimethylisoxazol-4-yl)-1-(4-methyltetrahydro-2H-pyran-4-yl)-1H-pyrrolo[2,3-b]pyridin-3-yl)-3-isopropoxybenzoic acid]: the IC50 was in the range of 8 to 1000 µM.

`Cc1noc(C)c1-c1cnc2c(c1)c(-c1c(Cl)cc(C(=O)O)cc1OC(C)C)cn2C1(C)CCOCC1` [P-0404, 3-chloro-4-(5-(3,5-dimethylisoxazol-4-yl)-1-(4-methyltetrahydro-2H-pyran-4-yl)-1H-pyrrolo[2,3-b]pyridin-3-yl)-5-isopropoxybenzoic acid]: the half-inhibitory concentration (IC50) fell in the range of 8 to 1000 µM.

On to `CCOc1nc(C(=O)O)ccc1-c1cn(C2(C)CCOCC2)c2ncc(-c3c(C)noc3C)cc12` [P-0405, 5-(5-(3,5-dimethylisoxazol-4-yl)-1-(4-methyltetrahydro-2H-pyran-4-yl)-1H-pyrrolo[2,3-b]pyridin-3-yl)-6-ethoxypicolinic acid], for which the IC50 fell in the range of 1 to 8 µM.

On to `CCOc1nc(C(=O)O)c(Cl)cc1-c1cn([C@H]2CCOC2)c2ncc(-c3c(C)noc3C)cc12` [P-0406, (S)-3-chloro-5-(5-(3,5-dimethylisoxazol-4-yl)-1-(tetrahydrofuran-3-yl)-1H-pyrrolo[2,3-b]pyridin-3-yl)-6-ethoxypicolinic acid], for which the IC50 lay in the range of 8 to 1000 µM.

Take `Cc1noc(C)c1-c1cnc2c(c1)c(-c1ccc(C(=O)O)cc1OC(C)C)cn2C1(C)CCOC1` (centres unmarked) [P-0407, 4-(5-(3,5-dimethylisoxazol-4-yl)-1-(3-methyltetrahydrofuran-3-yl)-1H-pyrrolo[2,3-b]pyridin-3-yl)-3-isopropoxybenzoic acid]: the 50% inhibitory concentration (IC50) was in the range of 8 to 1000 µM.

For `Cc1noc(C)c1-c1cnc2c(c1)c(-c1c(Cl)cc(C(=O)O)cc1OC(C)C)cn2C1(C)CCOC1` (centres unmarked) [P-0408, 3-chloro-4-(5-(3,5-dimethylisoxazol-4-yl)-1-(3-methyltetrahydrofuran-3-yl)-1H-pyrrolo[2,3-b]pyridin-3-yl)-5-isopropoxybenzoic acid], the IC50 fell in the range of 8 to 1000 µM.

For `Cc1noc(C)c1-c1cnc2c(c1)c(-c1c(Cl)cc(C(=O)O)cc1OC1CC1)cn2-c1ncccc1C#N` [P-0409, 3-chloro-4-(1-(3-cyanopyridin-2-yl)-5-(3,5-dimethylisoxazol-4-yl)-1H-pyrrolo[2,3-b]pyridin-3-yl)-5-cyclopropoxybenzoic acid], the IC50 was in the range of 1 to 8 µM.

On to `Cc1noc(C)c1-c1cnc2c(c1)c(-c1c(F)cc(C(=O)O)cc1OC1CCC1)cn2C1CCOCC1` [P-0410, 3-cyclobutoxy-4-(5-(3,5-dimethylisoxazol-4-yl)-1-(tetrahydro-2H-pyran-4-yl)-1H-pyrrolo[2,3-b]pyridin-3-yl)-5-fluorobenzoic acid], for which the IC50 lay within 8 to 1000 µM.

(Values after US11446287B2, “Compounds and methods for EP300 or CBP modulation and indications therefor” (Opna Immuno-Oncology SA, priority 2019, dated 2022).)
